Assays:
[1] = Plasma half life after oral administration; assay type: in vivo; settings: human
Excerpt: The immediate release pharmaceutical compositions of the invention, and which are useful in the kits and methods of the invention are “immediate release” tablet dosage forms. The tablets of the invention have neither the pharmacokinetic nor physical characteristics of extended release pharmaceutical dosage forms. Thus, a tablet of the invention will disintegrate or dissolve rapidly, preferably within one hour of administration, and administration of a tablet of the invention will result in a rapid rise in the blood plasma concentration of 5-methyl-2-(2′-chloro-6′-fluoroanilino)phenylacetic acid.

[2] = Clinical efficacy of once a day oral dose (anti-inflammatory, analgesic); assay type: in vivo, humans
Method: Such an agent is particularly useful in the treatment of chronic indications, such as rheumatoid arthritis and osteoarthritis as well as Alzheimer's Disease and prophylaxis of colon cancer, where the drug needs to be taken every day for the duration of a subject's life, because compliance is much easier with once a day dosing.
A single, 400 mg tablet that is easy to swallow facilitates compliance with a once-a-day, 400 mg dose treatment regimen.

[3] = Compressibility of the drug substance; assay type: physicochemical; settings: drug substance and its pharmaceutically acceptable salts
Method: WO 99/11605, published Mar. 11, 1999 discloses 5-alkyl-2-arylaminophenylacetic acids and derivatives thereof as potent, selective inhibitors of cyclooxygenase-2. […] This active agent, when administered once a day, in a single, immediate release tablet formulation in an amount of about 400 mg, where the active agent comprises about 65% by weight of the tablet, provides effective anti-inflammatory treatment over a 24 hour period, without the use of extended release pharmaceutical formulation excipients and technology, and in a tablet form which is of a size that is easy to swallow.

Cc1ccc(Nc2c(F)cccc2Cl)c(CC(=O)O)c1 [5-methyl-2-(2′-chloro-6′-fluoroanilino)phenylacetic acid]
half-life [1]: 3 to 6 h | Analgesic efficacy ([2]; 400 mg): effective analgesic dose | Anti-inflammatory treatment, duration of action ([2]; humans, single oral dose of about 400 mg per day, immediate-release tablet): effective, safe anti-inflammatory treatment over a 24 hour period | Compressibility [3]: poor compressibility
